Values of other authors as cited in patent US6815409B2, “Gel laundry detergent and/or pretreater which piles up after dispensing” (Unilever Home & Personal Care USA division of Conopco, Inc., priority 2002, dated 2004).

Settings: chain length 16; cited from Proc. R. Soc. London, A133, 140, 1931

CCCCCCCCCCCCCCCC(=O)O [Fatty acid chain length 16]
Measured pKa value: 8.5
